Laboratory results reported in US20230365592A1 (Agios Pharmaceuticals, Inc., priority 2022, published 2023).

target: T1, human PAH with the R408W mutation (Homo sapiens, UniProt P00439, R408W); test: Cell Based Phenylalanine Flux Assay; settings: A375 cells expressing human R408W PAH; 24 hrs compound incubation; 13C-Tyrosine by LC-MS; average where tested multiple times; read-out: AC50;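 further: after compound treatment, cells received sepiapterin plus isotope-labelled Phenylalanine for 4 hours, then labelled Tyrosine in the medium was quantified, 10-point 2-fold dilution series run in duplicate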
T1 construct: expressed in transfected cells
T1 sequence (P00439 1-452 R408W): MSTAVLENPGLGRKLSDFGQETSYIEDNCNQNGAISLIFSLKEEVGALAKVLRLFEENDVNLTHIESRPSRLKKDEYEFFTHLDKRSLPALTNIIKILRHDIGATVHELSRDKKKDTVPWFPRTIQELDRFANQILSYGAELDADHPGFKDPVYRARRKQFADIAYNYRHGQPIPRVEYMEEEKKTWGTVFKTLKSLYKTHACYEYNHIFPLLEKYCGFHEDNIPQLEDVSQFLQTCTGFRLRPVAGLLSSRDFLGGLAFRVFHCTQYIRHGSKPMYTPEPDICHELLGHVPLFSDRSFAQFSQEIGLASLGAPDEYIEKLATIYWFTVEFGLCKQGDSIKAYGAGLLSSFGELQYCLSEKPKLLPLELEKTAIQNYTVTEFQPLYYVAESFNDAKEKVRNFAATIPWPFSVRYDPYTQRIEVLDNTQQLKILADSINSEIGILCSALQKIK
Procedure: Compounds were resuspended in DMSO, and 2-fold serial dilutions were performed to generate a 10-point dose curve. Compounds were added to plated cells in a total volume of 100 µl, and a final DMSO concentration of 0.5%. Each compound was tested in duplicate. Following compound addition, cells were placed in a 5% CO2, 37° C. tissue culture incubator for 24 hrs. After the incubation period, 20 µM sepiapterin and 800 µM 13C9,15N-Phenylalanine were added. After 4 hours, cell media was removed. An aliquot of 10 µl of cell media was combined with 200 µl of extraction buffer (80% acetonitrile/20% H2O) for each well. Determination of ^13C-Tyrosine concentration was assessed by liquid chromatography mass spectrometry.
Where a compound was tested multiple times, the average value of the tests is reported.

**Q.** How did the AC50 turn out when `COc1ccc(-c2nnc(C(=O)N3CCc4[nH]cnc4[C@@H]3c3cc4c(F)cccn4n3)o2)nc1` [Example 789, (R)-(4-(4-fluoropyrazolo[1,5-a]pyridin-2-yl)-6,7-dihydro-1H-imidazo[4,5-c]pyridin-5(4H)-yl)(5-(5-methoxypyridin-2-yl)-1,3,4-oxadiazol-2-yl)methanone] was run?
**A.** 1 to 5 µM

**Q.** Which AC50 does the source give for `O=C(c1nnc(-c2ncccc2F)o1)N1CCc2[nH]cnc2[C@@H]1c1cc2c(F)cccn2n1` [Example 790, (R)-(4-(4-fluoropyrazolo[1,5-a]pyridin-2-yl)-6,7-dihydro-1H-imidazo[4,5-c]pyridin-5(4H)-yl)(5-(3-fluoropyridin-2-yl)-1,3,4-oxadiazol-2-yl)methanone] here?
**A.** > 5 µM

**Q.** For `Cc1cccc2cc([C@@H]3c4nc[nH]c4CCN3C(=O)c3ocnc3C(F)F)nn12` [Example 792, (S)-(4-(difluoromethyl)oxazol-5-yl)(4-(7-methylpyrazolo[1,5-a]pyridin-2-yl)-6,7-dihydro-1H-imidazo[4,5-c]pyridin-5(4H)-yl)methanone], which AC50 is on record?
**A.** < 0.5 µM

**Q.** For `Cc1cccc2cc([C@H]3c4nc[nH]c4CCN3C(=O)c3ocnc3C(F)F)nn12` [Example 793, (R)-(4-(difluoromethyl)oxazol-5-yl)(4-(7-methylpyrazolo[1,5-a]pyridin-2-yl)-6,7-dihydro-1H-imidazo[4,5-c]pyridin-5(4H)-yl)methanone], which AC50 is on record?
**A.** 0.5 to 1 µM

**Q.** `Cc1cccc2cc([C@@H]3c4nc[nH]c4CCN3C(=O)c3oc(C(C)(C)O)nc3C(F)F)nn12` [Example 794, (S)-(4-(difluoromethyl)-2-(2-hydroxypropan-2-yl)oxazol-5-yl)(4-(7-methylpyrazolo[1,5-a]pyridin-2-yl)-6,7-dihydro-1H-imidazo[4,5-c]pyridin-5(4H)-yl)methanone] was tested. Which AC50 did it give?
**A.** < 0.5 µM

**Q.** `Cc1cccc2cc([C@H]3c4nc[nH]c4CCN3C(=O)c3oc(C(C)(C)O)nc3C(F)F)nn12` [Example 795, (R)-(4-(difluoromethyl)-2-(2-hydroxypropan-2-yl)oxazol-5-yl)(4-(7-methylpyrazolo[1,5-a]pyridin-2-yl)-6,7-dihydro-1H-imidazo[4,5-c]pyridin-5(4H)-yl)methanone] was tested. Which AC50 did it give?
**A.** 1 to 5 µM

**Q.** For `O=C(c1nnc(-c2cnn(C(F)F)c2)o1)N1CCc2[nH]cnc2[C@H]1c1cc2c(F)cccn2n1` [Example 796, (S)-(5-(1-(difluoromethyl)-1H-pyrazol-4-yl)-1,3,4-oxadiazol-2-yl)(4-(4-fluoropyrazolo[1,5-a]pyridin-2-yl)-6,7-dihydro-1H-imidazo[4,5-c]pyridin-5(4H)-yl)methanone], which AC50 is on record?
**A.** < 0.5 µM

**Q.** For `Cc1cccc2cc([C@@H]3c4nc[nH]c4CCN3C(=O)c3nnc(-c4ccccn4)o3)nn12` [Example 798, (S)-(4-(7-methylpyrazolo[1,5-a]pyridin-2-yl)-6,7-dihydro-1H-imidazo[4,5-c]pyridin-5(4H)-yl)(5-(pyridin-2-yl)-1,3,4-oxadiazol-2-yl)methanone], which AC50 is on record?
**A.** < 0.5 µM

**Q.** With `Cc1cccc2cc([C@H]3c4nc[nH]c4CCN3C(=O)c3nnc(-c4cnn(C)c4)o3)nn12` [Example 801, (R)-(5-(1-methyl-1H-pyrazol-4-yl)-1,3,4-oxadiazol-2-yl)(4-(7-methylpyrazolo[1,5-a]pyridin-2-yl)-6,7-dihydro-1H-imidazo[4,5-c]pyridin-5(4H)-yl)methanone] as the compound, how does the AC50 read?
**A.** > 5 µM

**Q.** With `Cc1cccc2cc([C@H]3c4nc[nH]c4CCN3C(=O)c3nnc(-c4ccn(C)n4)o3)nn12` [Example 803, (R)-(5-(1-methyl-1H-pyrazol-3-yl)-1,3,4-oxadiazol-2-yl)(4-(7-methylpyrazolo[1,5-a]pyridin-2-yl)-6,7-dihydro-1H-imidazo[4,5-c]pyridin-5(4H)-yl)methanone] as the compound, how does the AC50 read?
**A.** > 5 µM

**Q.** `Cc1ccc2cc([C@H]3c4nc[nH]c4CCN3C(=O)c3oc(C(C)(C)O)nc3C(F)F)nn2c1` [Example 805] was tested. Which AC50 did it give?
**A.** 1 to 5 µM

**Q.** `Cc1cccn2nc([C@H]3c4nc[nH]c4CCN3C(=O)c3nnc(-c4cn(C)cn4)o3)cc12` [Example 807, (R)-(5-(1-methyl-1H-imidazol-4-yl)-1,3,4-oxadiazol-2-yl)(4-(4-methylpyrazolo[1,5-a]pyridin-2-yl)-6,7-dihydro-1H-imidazo[4,5-c]pyridin-5(4H)-yl)methanone] was tested. Which AC50 did it give?
**A.** > 5 µM

**Q.** Which AC50 does the source give for `Cn1cnc(-c2nnc(C(=O)N3CCc4[nH]cnc4[C@@H]3c3cc4c(F)cccn4n3)o2)c1` [Example 808, (R)-(4-(4-fluoropyrazolo[1,5-a]pyridin-2-yl)-6,7-dihydro-1H-imidazo[4,5-c]pyridin-5(4H)-yl)(5-(1-methyl-1H-imidazol-4-yl)-1,3,4-oxadiazol-2-yl)methanone] here?
**A.** > 5 µM

**Q.** How did the AC50 turn out when `Cn1cnc(-c2nnc(C(=O)N3CCc4[nH]cnc4[C@H]3c3cc4c(F)cccn4n3)o2)c1` [Example 809, (S)-(4-(4-fluoropyrazolo[1,5-a]pyridin-2-yl)-6,7-dihydro-1H-imidazo[4,5-c]pyridin-5(4H)-yl)(5-(1-methyl-1H-imidazol-4-yl)-1,3,4-oxadiazol-2-yl)methanone] was run?
**A.** 0.5 to 1 µM

**Q.** `CC(C)(O)c1nc(C(F)F)c(C(=O)N2CCc3[nH]cnc3[C@H]2c2cc3c(C(F)(F)F)cccn3n2)o1` [Example 810, (S)-(4-(difluoromethyl)-2-(2-hydroxypropan-2-yl)oxazol-5-yl)(4-(4-(trifluoromethyl)pyrazolo[1,5-a]pyridin-2-yl)-6,7-dihydro-1H-imidazo[4,5-c]pyridin-5(4H)-yl)methanone] was tested. Which AC50 did it give?
**A.** < 0.5 µM

**Q.** `CC(C)(O)c1nc(C(F)F)c(C(=O)N2CCc3[nH]cnc3[C@@H]2c2cc3c(C(F)(F)F)cccn3n2)o1` [Example 811, (R)-(4-(difluoromethyl)-2-(2-hydroxypropan-2-yl)oxazol-5-yl)(4-(4-(trifluoromethyl)pyrazolo[1,5-a]pyridin-2-yl)-6,7-dihydro-1H-imidazo[4,5-c]pyridin-5(4H)-yl)methanone] was tested. Which AC50 did it give?
**A.** 1 to 5 µM

**Q.** For `Cc1ccc2cc([C@@H]3c4nc[nH]c4CCN3C(=O)c3nnc(-c4ccccn4)o3)nn2c1` [Example 812, (S)-(4-(6-methylpyrazolo[1,5-a]pyridin-2-yl)-6,7-dihydro-1H-imidazo[4,5-c]pyridin-5(4H)-yl)(5-(pyridin-2-yl)-1,3,4-oxadiazol-2-yl)methanone], which AC50 is on record?
**A.** 0.5 to 1 µM

**Q.** `Cc1ccc2cc([C@H]3c4nc[nH]c4CCN3C(=O)c3nnc(-c4ccccn4)o3)nn2c1` [Example 813, (R)-(4-(6-methylpyrazolo[1,5-a]pyridin-2-yl)-6,7-dihydro-1H-imidazo[4,5-c]pyridin-5(4H)-yl)(5-(pyridin-2-yl)-1,3,4-oxadiazol-2-yl)methanone] was tested. Which AC50 did it give?
**A.** > 5 µM

**Q.** Which AC50 does the source give for `Cc1ccc2cc([C@@H]3c4nc[nH]c4CCN3C(=O)c3nnc(-c4ccn(C)n4)o3)nn2c1` [Example 814, (S)-(5-(1-methyl-1H-pyrazol-3-yl)-1,3,4-oxadiazol-2-yl)(4-(6-methylpyrazolo[1,5-a]pyridin-2-yl)-6,7-dihydro-1H-imidazo[4,5-c]pyridin-5(4H)-yl)methanone] here?
**A.** < 0.5 µM

**Q.** How did the AC50 turn out when `Cc1ccc2cc([C@H]3c4nc[nH]c4CCN3C(=O)c3nnc(-c4ccn(C)n4)o3)nn2c1` [Example 815, (R)-(5-(1-methyl-1H-pyrazol-3-yl)-1,3,4-oxadiazol-2-yl)(4-(6-methylpyrazolo[1,5-a]pyridin-2-yl)-6,7-dihydro-1H-imidazo[4,5-c]pyridin-5(4H)-yl)methanone] was run?
**A.** > 5 µM

**Q.** With `COc1ccc(-c2nnc(C(=O)N3CCc4[nH]cnc4[C@@H]3c3cc4c(C)cccn4n3)o2)nc1` [Example 816, (R)-(5-(5-methoxypyridin-2-yl)-1,3,4-oxadiazol-2-yl)(4-(4-methylpyrazolo[1,5-a]pyridin-2-yl)-6,7-dihydro-1H-imidazo[4,5-c]pyridin-5(4H)-yl)methanone] as the compound, how does the AC50 read?
**A.** > 5 µM

**Q.** `COc1ccc(-c2nnc(C(=O)N3CCc4[nH]cnc4[C@H]3c3cc4c(C)cccn4n3)o2)nc1` [Example 817, (S)-(5-(5-methoxypyridin-2-yl)-1,3,4-oxadiazol-2-yl)(4-(4-methylpyrazolo[1,5-a]pyridin-2-yl)-6,7-dihydro-1H-imidazo[4,5-c]pyridin-5(4H)-yl)methanone] was tested. Which AC50 did it give?
**A.** < 0.5 µM

**Q.** For `Cc1cccn2nc([C@H]3c4nc[nH]c4CCN3C(=O)c3nnc(-c4ncccc4F)o3)cc12` [Example 818, (R)-(5-(3-fluoropyridin-2-yl)-1,3,4-oxadiazol-2-yl)(4-(4-methylpyrazolo[1,5-a]pyridin-2-yl)-6,7-dihydro-1H-imidazo[4,5-c]pyridin-5(4H)-yl)methanone], which AC50 is on record?
**A.** > 5 µM

**Q.** How did the AC50 turn out when `Cc1cccn2nc([C@@H]3c4nc[nH]c4CCN3C(=O)c3nnc(-c4ncccc4F)o3)cc12` [Example 819, (S)-(5-(3-fluoropyridin-2-yl)-1,3,4-oxadiazol-2-yl)(4-(4-methylpyrazolo[1,5-a]pyridin-2-yl)-6,7-dihydro-1H-imidazo[4,5-c]pyridin-5(4H)-yl)methanone] was run?
**A.** < 0.5 µM

**Q.** For `Cc1cccn2nc([C@@H]3c4nc[nH]c4CCN3C(=O)c3nnc(-c4cnn(C(F)F)c4)o3)cc12` [Example 820, (S)-(5-(1-(difluoromethyl)-1H-pyrazol-4-yl)-1,3,4-oxadiazol-2-yl)(4-(4-methylpyrazolo[1,5-a]pyridin-2-yl)-6,7-dihydro-1H-imidazo[4,5-c]pyridin-5(4H)-yl)methanone], which AC50 is on record?
**A.** < 0.5 µM

**Q.** With `Cc1cccn2nc([C@H]3c4nc[nH]c4CCN3C(=O)c3nnc(-c4cnn(C(F)F)c4)o3)cc12` [Example 821, (R)-(5-(1-(difluoromethyl)-1H-pyrazol-4-yl)-1,3,4-oxadiazol-2-yl)(4-(4-methylpyrazolo[1,5-a]pyridin-2-yl)-6,7-dihydro-1H-imidazo[4,5-c]pyridin-5(4H)-yl)methanone] as the compound, how does the AC50 read?
**A.** > 5 µM
